Source: ChEMBL document CHEMBL5584338, “Design, Synthesis, and Biological Evaluation of 5-Amino-4-fluoro-1H-benzo[d]imidazole-6-carboxamide Derivatives as Novel and Potential MEK/RAF Complex Inhibitors Based on the "Clamp" Strategy” (J Med Chem, 2024)
Active and inactive are the calls of the source. No cut-off for these calls is given here.

Tests used:
MIA PaCa-2 [1] = assay: Induction of apoptosis in human MIA PaCa-2 cells assessed as increase in cleaved caspase-3 level upto 1 uM incubated for 24 hrs by Western blot analysis; assay type: functional, cell-based
MIA PaCa-2 [2] = assay: Induction of apoptosis in human MIA PaCa-2 cells assessed as early apoptotic cells at 1 uM incubated for 24 hrs by Annexin V-FITC/PI staining based flow cytometry (reference value: 5.02 %); assay type: functional
MIA PaCa-2 [3] = assay: Antiproliferative activity against human MIA PaCa-2 cells harboring KRAS G12C mutant at 0.1 uM incubated for 72 hrs by CCK8 assay relative to control; assay type: functional
[4] = target: RAF proto-oncogene serine/threonine-protein kinase (Homo sapiens) (UniProt P04049); assay: Binding affinity to CRAF (unknown origin) at 1 uM by kinase profiling analysis
[5] = Antitumor activity against mouse C26 cells harboring KRAS G12D mutant xenografted in BALB/c mouse at 30 mg/kg, iv administered 5 times a week for 12 days relative to control; assay type: functional, C-26; settings: C26, 288 h, time 12 day, read-out: TGI
[6] = target: Dual specificity mitogen-activated protein kinase kinase 1 (Homo sapiens, UniProt Q02750); assay: Inhibition of MEK1 (unknown origin)
[7] = target: Dual specificity mitogen-activated protein kinase kinase; MEK1/2 (Homo sapiens) (UniProt P36507+Q02750); assay: Inhibition of MEK phosphorylation in human MIA PaCa-2 cells upto 1 uM incubated for 4 hrs by Western blot analysis; assay type: cell-based
[8] = test system: Mitogen-activated protein kinase 1/3 (ERK1/2) (Homo sapiens); assay: Inhibition of ERK phosphorylation in human MIA PaCa-2 cells upto 1 uM incubated for 4 hrs by Western blot analysis
HCT-116 = assay: Antiproliferative activity against human HCT-116 cells harboring KRAS G13D mutant at 1 uM incubated for 72 hrs by CCK8 assay relative to control; assay type: functional
[9] = Toxicity in BALB/c mouse xenografted with […] harboring KRAS G12D mutant assessed as body weight change at 5 to 30 mg/kg, iv administered 5 times a week for 12 days; assay type: organism-based, C-26; settings: in vivo, 288 h, dose 5-30 mg/kg, time 12 day
MIA PaCa-2 [10] = assay: Induction of cell cycle arrest at G0/G1 phase in human MIA PaCa-2 cells at 0.01 to 0.25 uM incubated for 24 hrs by PI/RNase staining based flow cytometry (reference value: 47.37 %); assay type: functional; settings: dose 0.01-0.25 µM
[11] = Toxicity in NU/NU mouse xenografted with human HCT-116 cells harboring KRAS G13D mutant assessed as body weight change at 15 to 30 mg/kg, iv administered 5 times a week for 16 days; assay type: organism-based; settings: in vivo, 384 h, dose 15-30 mg/kg, time 16 day
MIA PaCa-2 [12] = assay: Induction of apoptosis in human MIA PaCa-2 cells assessed as early apoptotic cells at 0.25 uM incubated for 24 hrs by Annexin V-FITC/PI staining based flow cytometry (reference value: 5.02 %); assay type: functional
[13] = target: Serine/threonine-protein kinase B-raf (Homo sapiens, UniProt P15056); assay: Inhibition of BRAF (unknown origin) at 1 uM by kinase profiling analysis
MIA PaCa-2 [14] = assay: Stabilization of MEK1/2/BRAF complex in human MIA PaCa-2 cells at 100 nM incubated for 4 hrs by co-immunoprecipitation method; assay type: cell-based
[15] = Half life in Sprague-Dawley rat at 5 mg/kg, iv; assay type: ADME, organism-based; settings: in vivo
[16] = Cmax in Sprague-Dawley rat at 5 mg/kg, iv; assay type: ADME, organism-based; settings: in vivo
MIA PaCa-2 [17] = assay: Induction of apoptosis in human MIA PaCa-2 cells assessed as late apoptotic cells at 5 uM incubated for 24 hrs by Annexin V-FITC/PI staining based flow cytometry (reference value: 6.90 %); assay type: functional
MIA PaCa-2 [18] = assay: Induction of apoptosis in human MIA PaCa-2 cells assessed as early apoptotic cells at 5 uM incubated for 24 hrs by Annexin V-FITC/PI staining based flow cytometry (reference value: 5.02 %); assay type: functional
MIA PaCa-2 [19] = assay: Antiproliferative activity against human MIA PaCa-2 cells harboring KRAS G12C mutant incubated for 72 hrs by CCK8 assay; assay type: functional, cell-based; settings: MIA PaCa-2, 72 h

Sequence of RAF proto-oncogene serine/threonine-protein kinase (Homo sapiens) (P04049 whole entry): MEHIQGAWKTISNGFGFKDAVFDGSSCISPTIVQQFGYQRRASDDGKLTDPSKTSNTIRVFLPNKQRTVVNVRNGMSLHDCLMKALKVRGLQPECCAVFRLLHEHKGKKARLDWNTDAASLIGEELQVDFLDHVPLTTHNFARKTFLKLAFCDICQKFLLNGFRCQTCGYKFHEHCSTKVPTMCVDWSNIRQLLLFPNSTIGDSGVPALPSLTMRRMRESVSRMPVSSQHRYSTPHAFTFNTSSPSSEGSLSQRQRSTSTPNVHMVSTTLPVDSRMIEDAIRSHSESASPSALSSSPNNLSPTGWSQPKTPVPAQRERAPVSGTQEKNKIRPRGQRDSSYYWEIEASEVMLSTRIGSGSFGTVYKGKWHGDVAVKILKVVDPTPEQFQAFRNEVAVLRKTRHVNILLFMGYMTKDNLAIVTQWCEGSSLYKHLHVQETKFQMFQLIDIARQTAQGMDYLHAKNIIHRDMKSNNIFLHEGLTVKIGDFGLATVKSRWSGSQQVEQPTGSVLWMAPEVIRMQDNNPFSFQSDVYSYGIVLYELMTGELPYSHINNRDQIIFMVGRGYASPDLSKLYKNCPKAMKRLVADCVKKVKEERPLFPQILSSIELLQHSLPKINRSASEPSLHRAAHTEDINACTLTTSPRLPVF
Sequence of Dual specificity mitogen-activated protein kinase kinase; MEK1/2 (Homo sapiens) (P36507 whole entry, looked up): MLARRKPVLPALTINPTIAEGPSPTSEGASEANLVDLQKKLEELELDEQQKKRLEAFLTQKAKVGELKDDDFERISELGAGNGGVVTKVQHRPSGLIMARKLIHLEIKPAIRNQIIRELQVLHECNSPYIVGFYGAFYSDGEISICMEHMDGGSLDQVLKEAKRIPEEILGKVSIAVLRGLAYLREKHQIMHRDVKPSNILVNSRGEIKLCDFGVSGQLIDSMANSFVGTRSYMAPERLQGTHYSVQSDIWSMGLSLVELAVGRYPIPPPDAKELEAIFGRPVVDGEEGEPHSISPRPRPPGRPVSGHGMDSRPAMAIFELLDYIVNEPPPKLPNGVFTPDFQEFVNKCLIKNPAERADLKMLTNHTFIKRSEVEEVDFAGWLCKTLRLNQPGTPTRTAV
Sequence of Dual specificity mitogen-activated protein kinase kinase; MEK1/2 (Homo sapiens) (Q02750 whole entry, looked up): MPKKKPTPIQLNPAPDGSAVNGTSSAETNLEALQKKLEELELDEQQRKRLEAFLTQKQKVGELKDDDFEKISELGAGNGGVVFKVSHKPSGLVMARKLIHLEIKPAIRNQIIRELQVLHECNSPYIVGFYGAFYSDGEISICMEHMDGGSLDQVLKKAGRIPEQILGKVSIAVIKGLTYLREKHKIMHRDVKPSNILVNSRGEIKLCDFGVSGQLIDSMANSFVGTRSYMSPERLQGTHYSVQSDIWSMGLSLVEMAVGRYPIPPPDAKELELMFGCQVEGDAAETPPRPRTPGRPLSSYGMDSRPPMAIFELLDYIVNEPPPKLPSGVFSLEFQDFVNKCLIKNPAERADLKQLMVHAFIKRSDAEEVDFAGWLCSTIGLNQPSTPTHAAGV
Sequence of Dual specificity mitogen-activated protein kinase kinase 1 (Q02750 whole entry): as the sequence (Q02750 whole entry, looked up) above
Sequence of Serine/threonine-protein kinase B-raf (P15056 whole entry): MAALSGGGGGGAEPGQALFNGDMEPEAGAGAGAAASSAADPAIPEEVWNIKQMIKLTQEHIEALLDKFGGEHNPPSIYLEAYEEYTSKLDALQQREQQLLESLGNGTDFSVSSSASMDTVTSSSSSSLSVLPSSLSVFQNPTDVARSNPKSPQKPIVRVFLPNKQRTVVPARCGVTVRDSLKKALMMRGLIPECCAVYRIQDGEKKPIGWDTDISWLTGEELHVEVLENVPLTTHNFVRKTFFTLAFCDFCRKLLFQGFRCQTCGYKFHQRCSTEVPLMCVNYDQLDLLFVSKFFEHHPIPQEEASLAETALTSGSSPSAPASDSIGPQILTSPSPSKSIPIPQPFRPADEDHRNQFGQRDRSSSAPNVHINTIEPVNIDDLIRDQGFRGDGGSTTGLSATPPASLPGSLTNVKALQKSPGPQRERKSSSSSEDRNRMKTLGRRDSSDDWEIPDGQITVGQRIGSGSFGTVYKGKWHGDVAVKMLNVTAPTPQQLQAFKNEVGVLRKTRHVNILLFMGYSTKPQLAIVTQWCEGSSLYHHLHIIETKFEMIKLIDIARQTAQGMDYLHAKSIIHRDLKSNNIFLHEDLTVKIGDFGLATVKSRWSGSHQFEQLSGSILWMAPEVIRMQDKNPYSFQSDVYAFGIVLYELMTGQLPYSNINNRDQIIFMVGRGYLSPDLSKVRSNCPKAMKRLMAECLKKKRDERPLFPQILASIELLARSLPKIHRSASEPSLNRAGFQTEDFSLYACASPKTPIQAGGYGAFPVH

For `CCNS(=O)(=O)Nc1cccc(Cn2cnc3c(F)c(Nc4ccc(C5CC5)cc4F)c(C(=O)NOCCO)cc32)c1F`, the Activity (MIA PaCa-2 [1]) was “Active”, the Activity (MIA PaCa-2 [2]) was 32.3% and the inhibition at 0.1 µM (MIA PaCa-2 [3]) was 85%. The Activity [4] was “Active”, the inhibition in vivo at 30 mg/kg [5] was 70% and the IC50 [6] was 28 nM. For the same molecule, the inhibition [7] was “Active”, the inhibition [8] was “Active” and the inhibition at 1 µM (HCT-116) was 61.5%. The Activity [9] was “Non-Toxic”, the Activity (MIA PaCa-2 [10]) was 87.94% and the Activity [11] was “Non-Toxic”. The Activity (MIA PaCa-2 [12]) was 30.9%, the inhibition [13] was “Active” and the Activity (MIA PaCa-2 [14]) was “Active”. For the same molecule, the half-life [15] was 55.2 min, the Cmax [16] was 603 ng/mL and the Activity (MIA PaCa-2 [17]) was 9.09%. For the same molecule, the Activity (MIA PaCa-2 [18]) was 42.1% and the IC50 (MIA PaCa-2 [19]) was 11 nM.
